Laboratory results as given in patent US12398097B2, “WDR5-MYC inhibitors” (Vanderbilt University, priority 2019, dated 2025).

Molecular target: WDR5 (Homo sapiens, UniProt P61964)
Assay: Competition-based fluorescence polarization anisotropy assay
Details: binding to WDR5; displacement of FITC-labeled small molecule probe (analogous to Example J2 or HCH-25) or peptide probe FITC-AHx-SEEEIDVVSV; pH 6.0; Ki converted from IC50
Outline: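 Competition fluorescence polarization anisotropy binding to WDR5 using a FITC-labeled peptide probe or a fluorescently labeled small-molecule probe. Buffer: 200 mM phosphate, 300 mM NaCl, 0.5 mM TCEP, 0.1% Chaps, pH 6.0. Displacement data were converted to Ki.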

Row | Ki [nM] | SMILES
1 | 540 | O=C(NC1COC1)c1cc(C2CC2)cc(NS(=O)(=O)c2cc(Br)ccc2O)c1O [Example J93, 3-((5-Bromo-2-hydroxyphenyl)sulfonamido)-5-cyclopropyl-2-hydroxy-N-(oxetan-3-yl)benzamide]
2 | 400 | NC(=O)c1cc(C2CC2)cc(NS(=O)(=O)c2cc(Br)cc(Cl)c2O)c1O [Example J94, 3-((5-Bromo-3-chloro-2-hydroxyphenyl)sulfonamido)-5-cyclopropyl-2-hydroxybenzamide]
3 | 390 | CNC(=O)c1cc(C2CC2)cc(NS(=O)(=O)c2cc(Br)cc(Cl)c2O)c1O [Example J95, 3-((5-Bromo-3-chloro-2-hydroxyphenyl)sulfonamido)-5-cyclopropyl-2-hydroxy-N-methylbenzamide]
4 | 610 | COCCNC(=O)c1cc(C2CC2)cc(NS(=O)(=O)c2cc(Br)cc(Cl)c2O)c1O [Example J96, 3-((5-Bromo-3-chloro-2-hydroxyphenyl)sulfonamido)-5-cyclopropyl-2-hydroxy-N-(2-methoxyethyl)benzamide]
5 | 140 | O=C(N[C@H]1CCOC1)c1cc(C2CC2)cc(NS(=O)(=O)c2cc(Br)cc(Cl)c2O)c1O [Example J97, (S)-3-((5-Bromo-3-chloro-2-hydroxyphenyl)sulfonamido)-5-cyclopropyl-2-hydroxy-N-(tetrahydrofuran-3-yl)benzamide]
6 | 2320 | CNC(=O)c1cc(C2CC2)cc(NS(=O)(=O)c2cc(Br)cc(F)c2O)c1O [Example J98, 3-((5-Bromo-3-fluoro-2-hydroxyphenyl)sulfonamido)-5-cyclopropyl-2-hydroxy-N-methylbenzamide]
7 | 3720 | COCCNC(=O)c1cc(C2CC2)cc(NS(=O)(=O)c2cc(Br)cc(F)c2O)c1O [Example J99, 3-((5-Bromo-3-fluoro-2-hydroxyphenyl)sulfonamido)-5-cyclopropyl-2-hydroxy-N-(2-methoxyethyl)benzamide]
8 | 610 | NC(=O)c1cc(C2CC2)cc(NS(=O)(=O)c2cc(Br)cc([N+](=O)[O-])c2O)c1O [Example J104, 3-((5-Bromo-2-hydroxy-3-nitrophenyl)sulfonamido)-5-cyclopropyl-2-hydroxybenzamide]
9 | 13000 | COc1cc(Cl)c(Br)cc1S(=O)(=O)Nc1cc(C2CC2)cc(C(N)=O)c1O [Example J105, 3-((5-Bromo-4-chloro-2-methoxyphenyl)sulfonamido)-5-cyclopropyl-2-hydroxybenzamide]
10 | 1530 | COc1cc(F)c(Br)cc1S(=O)(=O)Nc1cc(C2CC2)cc(C(N)=O)c1O [Example J106, 3-((5-Bromo-4-fluoro-2-methoxyphenyl)sulfonamido)-5-cyclopropyl-2-hydroxybenzamide]
11 | 1480 | O=C(O)c1cc(F)cc(NS(=O)(=O)c2cc(Br)ccc2O)c1O [Example J107, 3-((5-Bromo-2-hydroxyphenyl)sulfonamido)-5-fluoro-2-hydroxybenzoic acid]
12 | 2240 | NC(=O)c1cc(F)cc(NS(=O)(=O)c2cc(Br)ccc2O)c1O [Example J108, 3-((5-Bromo-2-hydroxyphenyl)sulfonamido)-5-fluoro-2-hydroxybenzamide]
13 | 3470 | CNC(=O)c1cc(F)cc(NS(=O)(=O)c2cc(Br)ccc2O)c1O [Example J109, 3-((5-Bromo-2-hydroxyphenyl)sulfonamido)-5-fluoro-2-hydroxy-N-methylbenzamide]
14 | 2260 | COCCNC(=O)c1cc(F)cc(NS(=O)(=O)c2cc(Br)ccc2O)c1O [Example J110, 3-((5-Bromo-2-hydroxyphenyl)sulfonamido)-5-fluoro-2-hydroxy-N-(2-methoxyethyl)benzamide]
15 | 2930 | O=C(NCCO)c1cc(F)cc(NS(=O)(=O)c2cc(Br)ccc2O)c1O [Example J111, 3-((5-Bromo-2-hydroxyphenyl)sulfonamido)-5-fluoro-2-hydroxy-N-(2-hydroxyethyl)benzamide]
16 | 780 | O=C(O)c1cc(C2CC2)cc(NS(=O)(=O)c2cc(Br)ccc2O)c1F [Example J112, 3-((5-Bromo-2-hydroxyphenyl)sulfonamido)-5-cyclopropyl-2-fluorobenzoic acid]
17 | 1710 | O=C(O)c1cc(C2CC2)cc(NS(=O)(=O)c2cc(Br)cc3cccnc23)c1F [Example J113, 3-((6-Bromoquinoline)-8-sulfonamido)-5-cyclopropyl-2-fluorobenzoic acid]
18 | 520 | O=C(O)c1cc(NS(=O)(=O)c2cc(Br)ccc2O)cc(C2CC2)c1F [Example J114, 5-((5-Bromo-2-hydroxyphenyl)sulfonamido)-3-cyclopropyl-2-fluorobenzoic acid]
19 | 30 | O=C(O)c1c(O)c(NS(=O)(=O)c2cc(Br)ccc2O)cc(C2CC2)c1F [Example J117, 3-((5-Bromo-2-hydroxyphenyl)sulfonamido)-5-cyclopropyl-6-fluoro-2-hydroxybenzoic acid]

Row | Ki [nM] | SMILES
20 | 350 | O=C(O)c1c(O)c(NS(=O)(=O)c2cc(Br)cc(Cl)c2O)cc(C2CC2)c1F [Example J118, 3-((5-Bromo-3-chloro-2-hydroxyphenyl)sulfonamido)-5-cyclopropyl-6-fluoro-2-hydroxybenzoic acid]
21 | 130 | O=C(O)c1c(O)c(NS(=O)(=O)c2cc(Br)cc(F)c2O)cc(C2CC2)c1F [Example J119, 3-((5-Bromo-3-fluoro-2-hydroxyphenyl)sulfonamido)-5-cyclopropyl-6-fluoro-2-hydroxybenzoic acid]
22 | 360 | NC(=O)c1c(O)c(NS(=O)(=O)c2cc(Br)ccc2O)cc(C2CC2)c1F [Example J123, 3-((5-Bromo-2-hydroxyphenyl)sulfonamido)-5-cyclopropyl-6-fluoro-2-hydroxybenzamide]
23 | 280 | CNC(=O)c1c(O)c(NS(=O)(=O)c2cc(Br)ccc2O)cc(C2CC2)c1F [Example J124, 3-((5-Bromo-2-hydroxyphenyl)sulfonamido)-5-cyclopropyl-6-fluoro-2-hydroxy-N-methylbenzamide]
24 | 1320 | O=C(NCCN1CCOCC1)c1c(O)c(NS(=O)(=O)c2cc(Br)ccc2O)cc(C2CC2)c1F [Example J125, 3-((5-Bromo-2-hydroxyphenyl)sulfonamido)-5-cyclopropyl-6-fluoro-2-hydroxy-N-(2-morpholinoethyl)benzamide]
25 | 770 | O=C(NCCO)c1c(O)c(NS(=O)(=O)c2cc(Br)ccc2O)cc(C2CC2)c1F [Example J126, 3-((5-Bromo-2-hydroxyphenyl)sulfonamido)-5-cyclopropyl-6-fluoro-2-hydroxy-N-(2-hydroxyethyl)benzamide]
26 | 1970 | COCCNC(=O)c1c(O)c(NS(=O)(=O)c2cc(Br)ccc2O)cc(C2CC2)c1F [Example J127, 3-((5-Bromo-2-hydroxyphenyl)sulfonamido)-5-cyclopropyl-6-fluoro-2-hydroxy-N-(2-methoxyethyl)benzamide]
27 | 700 | O=C(NC1COC1)c1c(O)c(NS(=O)(=O)c2cc(Br)ccc2O)cc(C2CC2)c1F [Example J128, 3-((5-Bromo-2-hydroxyphenyl)sulfonamido)-5-cyclopropyl-6-fluoro-2-hydroxy-N-(oxetan-3-yl)benzamide]
28 | 2990 | O=C(NC1CCOC1)c1c(O)c(NS(=O)(=O)c2cc(Br)ccc2O)cc(C2CC2)c1F (stereo not shown) [Example J131, 3-((5-Bromo-2-hydroxyphenyl)sulfonamido)-5-cyclopropyl-6-fluoro-2-hydroxy-N-(tetrahydrofuran-3-yl)benzamide]
29 | 2450 | O=C(N[C@@H]1CCOC1)c1c(O)c(NS(=O)(=O)c2cc(Br)ccc2O)cc(C2CC2)c1F [Example J132, (R)-3-((5-Bromo-2-hydroyphenyl)sulfonamido)-5-cyclopropyl-6-fluoro-2-hydroxy-N-(tetrahydrofuran-3-yl)benzamide]
30 | 4510 | O=C(N[C@H]1CCOC1)c1c(O)c(NS(=O)(=O)c2cc(Br)ccc2O)cc(C2CC2)c1F [Example J133, (S)-3-((5-Bromo-2-hydroxyphenyl)sulfonamido)-5-cyclopropyl-6-fluoro-2-hydroxy-N-(tetrahydrofuran-3-yl)benzamide]
31 | 690 | CNC(=O)c1cc(NS(=O)(=O)c2cc(Br)ccc2O)cc(C2CC2)c1F [Example J135, 5-((5-Bromo-2-hydroxyphenyl)sulfonamido)-3-cyclopropyl-2-fluoro-N-methylbenzamide]
32 | 1110 | COCCNC(=O)c1cc(NS(=O)(=O)c2cc(Br)ccc2O)cc(C2CC2)c1F [Example J136, 5-((5-Bromo-2-hydroxyphenyl)sulfonamido)-3-cyclopropyl-2-fluoro-N-(2-methoxyethyl)benzamide]
33 | 2980 | O=C(NCCN1CCOCC1)c1cc(NS(=O)(=O)c2cc(Br)ccc2O)cc(C2CC2)c1F [Example J137, 5-((5-Bromo-2-hydroxyphenyl)sulfonamido)-3-cyclopropyl-2-fluoro-N-(2-morpholinoethyl)benzamide]
34 | 4750 | O=C(NC1COC1)c1cc(NS(=O)(=O)c2cc(Br)ccc2O)cc(C2CC2)c1F [Example J138, 5-((5-Bromo-2-hydroxyphenyl)sulfonamido)-3-cyclopropyl-2-fluoro-N-(oxetan-3-yl)benzamide]
35 | 12200 | O=C(NC1CCOC1)c1cc(NS(=O)(=O)c2cc(Br)ccc2O)cc(C2CC2)c1F (stereo not shown) [Example J139, 5-((5-Bromo-2-hydroxyphenyl)sulfonamido)-3-cyclopropyl-2-fluoro-N-(tetrahydrofuran-3-yl)benzamide]
36 | 960 | CNC(=O)c1cc(C2CC2)cc(NS(=O)(=O)c2cc(Br)ccc2O)c1F [Example J141, 3-((5-Bromo-2-hydroxyphenyl)sulfonamido)-5-cyclopropyl-2-fluoro-N-methylbenzamide]
37 | 1480 | COCCNC(=O)c1cc(C2CC2)cc(NS(=O)(=O)c2cc(Br)ccc2O)c1F [Example J142, 3-((5-Bromo-2-hydroxyphenyl)sulfonamido)-5-cyclopropyl-2-fluoro-N-(2-methoxyethyl)benzamide]
